Test results taken from patent publication US20110154513A1, “PROBE FOR VISUALIZING NEURAL ACTIVITY” (University of Toyama, priority 2008, published 2011).

Tests used:
hippocampal nerve cells = test: Luminescence (photon count) of probes expressed in cultured hippocampal nerve cells after stimulation; assay type: cell-based, rat
Protocol: On day 18 of pregnancy, a rat fetus was taken out of a pregnant rat, and the brain was separated therefrom in cold PBS. Furthermore, brain slices containing hippocampal nerve cells were separated from the cerebrum. The separated hippocampal cells were reacted with 0.125% trypsin (protease) at room temperature for 20 minutes in a test tube such that adhesion factors on the cell surface were degraded to attenuate cell-cell adhesion. Then, the test tube was left standing for trypsin removal. After precipitation of the brain slices in the bottom of the test tube, the trypsin solution as a supernatant was removed by aspiration. Subsequently, a DMEM medium containing 10% serum was added to the test tube. The test tube was left standing again, and the supernatant was removed. The brain slices were dissociated into individual cells by repeating approximately 10 times aspiration and dropping using a plastic dropper. Then, the cells were cultured in a plastic dish.
On culture day 4, the plasmid encoding the fusion protein 1 of Example 1 was gene-transferred into the cells. The gene transfer method was performed using Lipofectamine 2000 in the same way as in the HEK293 cells. Two days after the gene transfer, the medium was replaced by an Opti-MEM medium (Invitrogen Corp.) containing 0.5 mM luciferin EF (Promega Corp.), a luminescent substrate of luciferase. The luminescence intensity was measured using a luminometer AEQUORIA (Hamamatsu Photonics K.K.). This apparatus counts the number of photons generated from cells during culture placed together with a plastic dish in a dark box. The measurement was performed for 1 consecutive hour, and the luminescence intensity at 1-minute intervals was plotted on the ordinate of a graph. Immediately before the measurement, the cells were stimulated with forskolin, glutamate, KCl, or the like.

actin polymerization = test: Luminescence of IRES-linked split luciferase-actin fusion proteins in HEK293 cells with actin polymerization inhibitor; assay type: cell-based; details: inhibitor added 3 hours before measurement, varying concentrations
Description: FIG. 7 is a graph showing results of Example 8. The graph depicts the relationship between an actin polymerization inhibitor concentration and luminescence from split luciferase-actin fusion proteins bound via an IRES sequence and expressed in HEK293 cells;
For preparing a form suitable for transgenic mouse preparation, plasmids were constructed for a fusion protein comprising two fusion proteins bound via an IRES sequence (the resultant fusion protein is referred to as a fusion protein 13: LucN-Actin-IRES-LucC-actin). LucC-Actin and LucN-Actin are thereby translated from one mRNA and expressed in cells. The gene transfer was performed in the same way as in Example 1. Moreover, in this experiment, an actin polymerization inhibitor latrunculin A was added into a medium 3 hours before luminescence measurement. Moreover, the luminescence measurement used a luminometer AEQUORIA (Hamamatsu Photonics K.K.).
This is the evidence that the luminescence of the prepared protein serves as an index for actin polymerization.

polymerized actin = test: Rhodamine-phalloidin staining of polymerized actin in HEK293T cells; assay type: cell-based; details: varying concentrations of inhibitor
Protocol: FIG. 8 is a photograph showing results of Example 9. The photograph is an image of polymerized actin stained with rhodamine-phalloidin in the presence of varying concentrations of a polymerization inhibitor;
HEK293T cells were treated with latrunculin A and then fixed in 4% paraformaldehyde, and only polymerized actin was stained using F-Actin Visualization Biochem Kit (Cosmo Bio Co., Ltd.).
An image of polymerized actin stained with rhodamine-phalloidin in the presence of varying concentrations of the polymerization inhibitor was confirmed.

[Cl-].[K+] [KCl, potassium chloride]
increase in luminescence intensity by KCl stimulation (hippocampal nerve cells; fusion protein 1 expressed in nerve cells, compared to before addition of KCl): approximately 6 times | effect of stimulation on luminescence intensity (hippocampal nerve cells; nerve cells expressing fusion protein 5, 50 mM KCl, alone or with additive): increases the luminescence intensity

C/C1=C/C(=O)O[C@@H]2C[C@@H](CC[C@H](C)/C=C\C=C\CC1)O[C@@](O)([C@@H]1CSC(=O)N1)C2 [latrunculin A]
luminescence of split luciferase-actin probe (actin polymerization): decreased in a concentration-dependent manner | polymerized actin (rhodamine-phalloidin staining) (polymerized actin): decreased in a concentration-dependent manner

wild-type luciferase: wild-type firefly luciferase (Promega Corp.), control experiment
response of luminescence to KCl (hippocampal nerve cells; probe expressed in nerve cells, KCl stimulation): does not exhibit the response to KCl
